# Results: article PMC3925373 (Bioorganic & medicinal chemistry, 2013)
# Structures can show the parent of a compound that is named as a salt. Where two headings read alike, the source gives them in different places.
# What was measured:
# [1] = biological target: T1, Human matrix metalloprotease-1 (Homo sapiens, UniProt P03956); test: Human MMP-1 FRET assay; format: biochemical
# T1 sequence (P03956 100-469): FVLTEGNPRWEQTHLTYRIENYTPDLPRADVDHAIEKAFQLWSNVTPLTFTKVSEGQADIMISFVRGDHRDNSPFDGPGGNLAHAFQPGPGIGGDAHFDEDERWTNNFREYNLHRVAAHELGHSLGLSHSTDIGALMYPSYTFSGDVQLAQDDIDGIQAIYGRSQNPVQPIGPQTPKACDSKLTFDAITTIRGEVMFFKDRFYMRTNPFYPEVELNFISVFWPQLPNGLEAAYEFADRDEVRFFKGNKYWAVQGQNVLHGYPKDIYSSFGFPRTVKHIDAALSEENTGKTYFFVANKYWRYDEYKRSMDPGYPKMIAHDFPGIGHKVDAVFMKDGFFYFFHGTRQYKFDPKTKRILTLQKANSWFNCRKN
# [2] = biological target: Bacillus anthracis lethal factor (Bacillus anthracis, UniProt P15917); test: biochemical; format: biochemical
# BaLF = BaLF (Bacillus anthracis, UniProt P15917); format: biochemical
# BoNT/A LC = BoNT/A LC (Clostridium botulinum, UniProt P0DPI0); test: biochemical; format: biochemical, Clostridium bolulinum
# Sequence of BoNT/A LC (P0DPI0 2-448 limits assumed): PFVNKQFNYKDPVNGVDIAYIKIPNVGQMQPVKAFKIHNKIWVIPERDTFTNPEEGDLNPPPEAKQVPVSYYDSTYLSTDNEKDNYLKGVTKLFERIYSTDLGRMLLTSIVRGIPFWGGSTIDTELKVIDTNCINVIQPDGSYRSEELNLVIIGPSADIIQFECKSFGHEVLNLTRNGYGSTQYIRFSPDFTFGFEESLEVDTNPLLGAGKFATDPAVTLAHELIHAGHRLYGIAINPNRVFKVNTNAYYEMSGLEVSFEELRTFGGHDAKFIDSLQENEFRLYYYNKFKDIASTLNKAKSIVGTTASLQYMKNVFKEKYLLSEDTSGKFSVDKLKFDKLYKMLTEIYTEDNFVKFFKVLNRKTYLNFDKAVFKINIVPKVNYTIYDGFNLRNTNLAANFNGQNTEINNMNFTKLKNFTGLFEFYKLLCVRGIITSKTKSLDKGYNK
# Sequence of Bacillus anthracis lethal factor (P15917 34-809 limits assumed): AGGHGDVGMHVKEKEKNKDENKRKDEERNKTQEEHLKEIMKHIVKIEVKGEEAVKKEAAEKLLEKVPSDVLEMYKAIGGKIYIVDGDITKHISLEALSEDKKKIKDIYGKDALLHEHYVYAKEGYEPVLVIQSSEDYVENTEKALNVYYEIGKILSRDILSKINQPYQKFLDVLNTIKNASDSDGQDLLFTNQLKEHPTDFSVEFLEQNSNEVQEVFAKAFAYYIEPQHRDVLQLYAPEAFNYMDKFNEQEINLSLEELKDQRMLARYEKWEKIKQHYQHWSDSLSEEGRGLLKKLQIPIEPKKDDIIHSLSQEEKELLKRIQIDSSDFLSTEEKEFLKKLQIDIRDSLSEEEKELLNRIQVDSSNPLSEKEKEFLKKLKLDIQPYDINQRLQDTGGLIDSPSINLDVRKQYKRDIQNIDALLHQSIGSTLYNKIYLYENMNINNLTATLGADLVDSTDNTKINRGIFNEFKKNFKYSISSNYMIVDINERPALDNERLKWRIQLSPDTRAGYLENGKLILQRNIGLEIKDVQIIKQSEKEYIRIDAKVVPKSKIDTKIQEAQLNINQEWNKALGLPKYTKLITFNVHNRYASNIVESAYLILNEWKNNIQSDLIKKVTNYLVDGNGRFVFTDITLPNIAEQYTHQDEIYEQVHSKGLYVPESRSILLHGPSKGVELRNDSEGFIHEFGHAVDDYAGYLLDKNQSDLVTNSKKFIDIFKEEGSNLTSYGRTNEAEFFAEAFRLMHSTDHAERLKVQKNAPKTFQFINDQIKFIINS
# Sequence of BaLF (P15917 34-809 limits assumed): as above
Compound,LF inhibitory activity (in words) [2],further results
Cc1cc(N)c2cc(NC(=O)Nc3ccc4nc(C)cc(N)c4c3)ccc2n1 [Compound 1],–,IC50 [1]: > 100 µM
"Cc1cc(N)c2cc(NC(=O)CCc3ccccc3C)ccc2n1 [Compound 18aa, N-(4-Amino-2-methylquinolin-6-yl)-3-(2-methylphenyl)propionamide trifluoroacetate]",inactive,–
"COc1ccc(Br)cc1CCC(=O)Nc1ccc2nc(C)cc(N)c2c1 [Compound 18ee, N-(4-Amino-2-methylquinolin-6-yl)-3-(5-bromo-2-methoxyphenyl)propionamide trifluoroacetate]",inactive,–
"COc1ccc(Cl)cc1CCC(=O)Nc1ccc2nc(C)cc(N)c2c1 [Compound 18ff, N-(4-Amino-2-methylquinolin-6-yl)-3-(5-chloro-2-methoxyphenyl)propionamide trifluoroacetate]",inactive,–
"CCOc1ccccc1CCC(=O)Nc1ccc2nc(C)cc(N)c2c1 [Compound 18ii, N-(4-Amino-2-methylquinolin-6-yl)-3-(2-ethoxyphenyl)propionamide trifluoroacetate]",activity was also totally lost,–
"Cc1cc(N)c2cc(NC(=O)c3ccc(-c4ccc5ncccc5c4)cc3)ccc2n1 [Compound 18m, N-(4-Amino-2-methylquinolin-6-yl)-4-(quinoline-6-yl)benzamide trifluoroacetate]",–,mechanism of inhibition on BaLF activity (BaLF): noncompetitive
"COc1ccncc1CCC(=O)Nc1ccc2nc(C)cc(N)c2c1 [Compound 18oo, N-(4-Amino-2-methylquinolin-6-yl)-3-(4-methoxypyridin-3-yl)propionamide]",devoid of activity,–
"COc1ccsc1CCC(=O)Nc1ccc2nc(C)cc(N)c2c1 [Compound 18pp, N-(4-Amino-2-methylquinolin-6-yl)-3-(3-methoxythiophene-2-yl)propionamide trifluoroacetate]",devoid of activity,–
"COc1ccccc1CCC(=O)Nc1ccc2nc(C)cc(N)c2c1 [Compound 18t, N-(4-Amino-2-methylquinolin-6-yl)-3-(2-methoxyphenyl)propionamide trifluoroacetate]",–,mechanism of inhibition on BaLF activity (BaLF): noncompetitive
"COc1ccc(CCC(=O)Nc2ccc3nc(C)cc(N)c3c2)cc1 [Compound 18u, N-(4-Amino-2-methylquinolin-6-yl)-3-(4-methoxyphenyl)propionamide p-toluenesulfonate]",LF inhibitory activity was lost,–
"COc1cccc(CCC(=O)Nc2ccc3nc(C)cc(N)c3c2)c1 [Compound 18v, N-(4-Amino-2-methylquinolin-6-yl)-3-(3-methoxyphenyl)propionamide trifluoroacetate]",LF inhibitory activity was lost,–
"COc1ccc(OC)c(CCC(=O)Nc2ccc3nc(C)cc(N)c3c2)c1 [Compound 18w, N-(4-Amino-2-methylquinolin-6-yl)-3-(2,5-dimethoxyphenyl)propionamide p-toluenesulfonate]",complete loss of activity,–
"COc1cccc(CCC(=O)Nc2ccc3nc(C)cc(N)c3c2)c1OC [Compound 18x, N-(4-Amino-2-methylquinolin-6-yl)-3-(2,3-dimethoxyphenyl)propionamide p-toluenesulfonate]",complete loss of activity,–
"Cc1cc(N)c2cc(NC(=O)CCc3ccccc3OC(=O)c3ccccc3)ccc2n1 [Compound 18y, N-(4-Amino-2-methylquinolin-6-yl)-3-(2-benzoyloxyphenyl)propionamide trifluoroacetate]",inactive,–
"Cc1cc(N)c2cc(NC(=O)CCc3ccccc3Cl)ccc2n1 [Compound 18z, N-(4-Amino-2-methylquinolin-6-yl)-3-(2-chlorophenyl)propionamide trifluoroacetate]",inactive,–
"Cc1cc(N)c2cc(NC(=O)Nc3ccc4c(c3)OCO4)ccc2n1 [Compound 20a, 1-(4-Amino-2-methylquinolin-6-yl)-3-(benzo[d][1,3]dioxol-5-yl)urea trifluoroacetate]",–,IC50 [2]: 87 µM; IC50 (BoNT/A LC): 51 µM
"COc1cc(-c2cccnc2)ccc1CCC(=O)Nc1ccc2nc(C)cc(N)c2c1 [Compound 35, N-(4-Amino-2-methylquinolin-6-yl)-3-(2-methoxy-4-(pyridin-3-yl)phenyl)propanamide]",–,IC50 [2]: 55 µM
N-(4-Amino-2-methylquinolin-6-yl)isoquinoline-3-carboxamide trifluoroacetate [Compound 18h],–,IC50 (BoNT/A LC; read-out: IC50 BoNT/A): > 100 µM
N-(4-Amino-2-methylquinolin-6-yl)quinoline-2-carboxamide trifluoroacetate [Compound 18g],–,IC50 ([2]; read-out: IC50 LF): 52 µM
